# Patent US20250249056A1, “CANCER THERAPIES COMPRISING A NUCLEAR EXPORT INHIBITOR AND AN ONCOLYTIC VIRUS” (priority 2022, published 2025)
# Columns and labels:
# PANC-1 cells [1] = test: Click-iT EdU cell proliferation assay; type: cell-based, human; conditions: PANC-1 cells treated for 24 hours; selinexor or MYXV
# Experimental: Selinexor was previously reported to reduce the proliferation of cancer cells, however, viral infection also stops cell proliferation (Zheng, Y., et al., 2014, Cancer Chemotherapy and Pharmacology, 74:487-495; Johnston, J. B., et al., 2005, Journal of Virology, 79:10750-10763). As such, the effect of selinexor and MYXV on human cancer cells was examined alone and in combination. To this end, two cell proliferation assays were performed. In the first methods, DNA synthesis was measured by the incorporation of EdU (5-ethynyl-2′-deoxyuridine), a nucleoside analog of thymidine, into DNA during active DNA synthesis (FIG. 4A) (Chehrehasa F., et al., 2009, Journal of Neuroscience Methods, 177:122-130). Using this method in uninfected PANC-1 cells, EdU incorporation was detected in more than 50% of dividing cells (FIG. 4B and FIG. 4C). When cells were treated with selinexor or MYXV for 24 hours, on the other hand, a significant reduction in proliferation was observed (20% EdU-positive cells). […]
# Click-iT EdU Cell Proliferation Assay: To visualize and measure cell proliferation, a Click-iT™ EdU cell proliferation assay (Thermo Fisher) was used according to the manufacturer's instructions. […] Fluorescence images were obtained using a fluorescence microscope and fluorescence signals were analyzed using ImageJ software.
# PANC-1 cells [2] = test: CyQUANT NF cell proliferation assay (PANC-1); type: cell-based, human; conditions: after 24 hours compared to mock treated cells, selinexor 0.1 or 1 μM, multiple MOI
# Experimental: Cell Proliferation Assay: To measure cancer cell proliferation based on the amount of cellular DNA, the CyQuant™ NF Cell Proliferation Assay Kit (Invitrogen) was used according to the manufacturer's instructions. Briefly, PANC-1, HT29, MDA-MB435, and Colo205 cells were seeded in a 96-well plate (1×10^4 cells/well) and left to attach to the wells overnight. The next day, the medium was removed and replaced with 50 μL medium containing different concentrations of selinexor (0-1 μM). After an hour of incubation with selinexor, the virus was added to different MOIs (0.5-5), bringing the end volume of every well up to 100 μL. A 1× dye binding solution was prepared by adding 9 μL of the CyQuant™ NF Dye reagent in 4.5 mL Hank's Balanced Salt Solution (HBSS) buffer (Invitrogen). After 24, 48, 72, and 96 hours of incubation, the medium was removed from the cells and 50 μL 1× dye solution was added to all wells. The microplate was covered to protect it from light and was incubated for 30-60 minutes in a 5% CO2 incubator at 37° C. Subsequently, cell proliferation was quantified by measuring fluorescence with an excitation of 485 nm and emission of 530 nm in a VarioSkan Lux Microplate reader (Thermo Fisher). All experiments were performed in quadruple and normalized to mock-treated cells.
compound,measurement,setting,value
O=C(/C=C\n1cnc(-c2cc(C(F)(F)F)cc(C(F)(F)F)c2)n1)NNc1cnccn1 [selinexor],EdU-positive cells,PANC-1 cells [1],20%
same,cell proliferation (DNA content),PANC-1 cells [2],significant reductions in cell proliferation
